Assay results published in PubChem BioAssay AID1259407 (Chemical Carcinogenesis Research Information System (CCRIS), 2018).
Activity calls are given as the source filed them. How the calls were made is not given here.

Tested on: CCRIS mutagenicity, Ames/micronucleus/aberration tests
Experiment: CCRIS mutagenicity studies
[1] = Test System: AMES SALMONELLA TYPHIMURIUM, Strain/Indicator: TA98, Metabolic Activation: NONE, Method: STANDARD PLATE
[2] = Test System: AMES SALMONELLA TYPHIMURIUM, Strain/Indicator: TA100, Metabolic Activation: NONE, Method: STANDARD PLATE

In the case of `O=C([O-])[C@H](O)[C@@H](O)[C@H](O)[C@H](O)CO.O=C([O-])[C@H](O)[C@@H](O)[C@H](O)[C@H](O)CO.[Cu+2]`, the mutagenic call (Test System: AMES SALMONELLA TYPHIMURIUM, Strain/Indicator: TA97, Metabolic Activation: NONE, Method: PREINCUBATION) is reported as “inactive; negative”, the mutagenic call (Test System: AMES SALMONELLA TYPHIMURIUM, Strain/Indicator: TA97, Metabolic Activation: S-9, Method: PREINCUBATION) is reported as “inactive; negative” and the mutagenic call (Test System: AMES SALMONELLA TYPHIMURIUM, Strain/Indicator: TA102, Metabolic Activation: NONE, Method: PREINCUBATION) is reported as “inactive; negative”. The mutagenic call (Test System: AMES SALMONELLA TYPHIMURIUM, Strain/Indicator: TA102, Metabolic Activation: S-9, Method: PREINCUBATION) was “inactive; negative”.
For `Clc1ccc(N=Nc2ccc(Cl)c(Cl)c2)cc1Cl`, the mutagenic call (Test System: AMES SALMONELLA TYPHIMURIUM, Strain/Indicator: TA97, Metabolic Activation: NONE, Method: STANDARD PLATE) was “inactive; negative”, the mutagenic call (Test System: AMES SALMONELLA TYPHIMURIUM, Strain/Indicator: TA97, Metabolic Activation: RAT, LIVER, S-9, AROCLOR 1254, Method: STANDARD PLATE) was “inactive; negative” and the mutagenic call [1] was “inactive; negative”. The mutagenic call (Test System: AMES SALMONELLA TYPHIMURIUM, Strain/Indicator: TA98, Metabolic Activation: RAT, LIVER, S-9, AROCLOR 1254, Method: STANDARD PLATE) was “inactive; negative”, the mutagenic call [2] was “inactive; negative” and the mutagenic call (Test System: AMES SALMONELLA TYPHIMURIUM, Strain/Indicator: TA100, Metabolic Activation: RAT, LIVER, S-9, AROCLOR 1254, Method: STANDARD PLATE) was “inactive; negative”. For the same compound, the mutagenic call (Test System: AMES SALMONELLA TYPHIMURIUM, Strain/Indicator: TA104, Metabolic Activation: NONE, Method: STANDARD PLATE) was “inactive; negative”, the mutagenic call (Test System: AMES SALMONELLA TYPHIMURIUM, Strain/Indicator: TA104, Metabolic Activation: RAT, LIVER, S-9, AROCLOR 1254, Method: STANDARD PLATE) was “inactive; negative” and the mutagenic call (Test System: CHINESE HAMSTER OVARY, Strain/Indicator: CHO-K1-BH4 (HGPRT), Metabolic Activation: NONE) was “inactive; negative”. The mutagenic call (Test System: CHINESE HAMSTER OVARY, Strain/Indicator: CHO-K1-BH4 (HGPRT), Metabolic Activation: RAT, LIVER, S-9, AROCLOR 1254) was “inactive; negative” and the mutagenic call (Test System: UDS RODENT HEPATOCYTES, Strain/Indicator: THY INCORP (NON-S-PHASE), Method: LIQUID SCINTILLATION COUNTING) was “active; positive”.
For `C[Si](C)(C)Cl`, the mutagenic call (Test System: AMES SALMONELLA TYPHIMURIUM, Strain/Indicator: TA98, Metabolic Activation: HAMSTER, LIVER, S-9, AROCLOR 1254, Method: PREINCUBATION) was “inactive; negative”, the mutagenic call (Test System: AMES SALMONELLA TYPHIMURIUM, Strain/Indicator: TA98, Metabolic Activation: NONE, Method: PREINCUBATION) was “inactive; negative” and the mutagenic call [1] was “inactive; negative”. For the same compound, the mutagenic call (Test System: AMES SALMONELLA TYPHIMURIUM, Strain/Indicator: TA98, Metabolic Activation: RAT LIVER S-9, AROCLOR 1254, Method: STANDARD PLATE) was “inactive; negative”, the mutagenic call (Test System: AMES SALMONELLA TYPHIMURIUM, Strain/Indicator: TA98, Metabolic Activation: RAT, LIVER, S-9, AROCLOR 1254, Method: PREINCUBATION) was “inactive; negative” and the mutagenic call (Test System: AMES SALMONELLA TYPHIMURIUM, Strain/Indicator: TA100, Metabolic Activation: HAMSTER, LIVER, S-9, AROCLOR 1254, Method: PREINCUBATION) was “inactive; negative”. The mutagenic call (Test System: AMES SALMONELLA TYPHIMURIUM, Strain/Indicator: TA100, Metabolic Activation: NONE, Method: PREINCUBATION) was “inactive; negative”, the mutagenic call [2] was “inactive; negative” and the mutagenic call (Test System: AMES SALMONELLA TYPHIMURIUM, Strain/Indicator: TA100, Metabolic Activation: RAT LIVER S-9, AROCLOR 1254, Method: STANDARD PLATE) was “inactive; negative”. The mutagenic call (Test System: AMES SALMONELLA TYPHIMURIUM, Strain/Indicator: TA100, Metabolic Activation: RAT, LIVER, S-9, AROCLOR 1254, Method: PREINCUBATION) was “inactive; negative”, the mutagenic call (Test System: AMES SALMONELLA TYPHIMURIUM, Strain/Indicator: TA1535, Metabolic Activation: HAMSTER, LIVER, S-9, AROCLOR 1254, Method: PREINCUBATION) was “inactive; negative” and the mutagenic call (Test System: AMES SALMONELLA TYPHIMURIUM, Strain/Indicator: TA1535, Metabolic Activation: NONE, Method: PREINCUBATION) was “inactive; negative”. The mutagenic call (Test System: AMES SALMONELLA TYPHIMURIUM, Strain/Indicator: TA1535, Metabolic Activation: NONE, Method: STANDARD PLATE) was “inactive; negative”, the mutagenic call (Test System: AMES SALMONELLA TYPHIMURIUM, Strain/Indicator: TA1535, Metabolic Activation: RAT LIVER S-9, AROCLOR 1254, Method: STANDARD PLATE) was “inactive; negative” and the mutagenic call (Test System: AMES SALMONELLA TYPHIMURIUM, Strain/Indicator: TA1535, Metabolic Activation: RAT, LIVER, S-9, AROCLOR 1254, Method: PREINCUBATION) was “inactive; negative”. For the same compound, the mutagenic call (Test System: AMES SALMONELLA TYPHIMURIUM, Strain/Indicator: TA1537, Metabolic Activation: HAMSTER, LIVER, S-9, AROCLOR 1254, Method: PREINCUBATION) was “inactive; negative”, the mutagenic call (Test System: AMES SALMONELLA TYPHIMURIUM, Strain/Indicator: TA1537, Metabolic Activation: NONE, Method: PREINCUBATION) was “inactive; negative” and the mutagenic call (Test System: AMES SALMONELLA TYPHIMURIUM, Strain/Indicator: TA1537, Metabolic Activation: NONE, Method: STANDARD PLATE) was “inactive; negative”. The mutagenic call (Test System: AMES SALMONELLA TYPHIMURIUM, Strain/Indicator: TA1537, Metabolic Activation: RAT LIVER S-9, AROCLOR 1254, Method: STANDARD PLATE) was “inactive; negative”, the mutagenic call (Test System: AMES SALMONELLA TYPHIMURIUM, Strain/Indicator: TA1537, Metabolic Activation: RAT, LIVER, S-9, AROCLOR 1254, Method: PREINCUBATION) was “inactive; negative” and the mutagenic call (Test System: AMES SALMONELLA TYPHIMURIUM, Strain/Indicator: TA1538, Metabolic Activation: HAMSTER, LIVER, S-9, AROCLOR 1254, Method: PREINCUBATION) was “inactive; negative”. For the same compound, the mutagenic call (Test System: AMES SALMONELLA TYPHIMURIUM, Strain/Indicator: TA1538, Metabolic Activation: NONE, Method: PREINCUBATION) was “inactive; negative”, the mutagenic call (Test System: AMES SALMONELLA TYPHIMURIUM, Strain/Indicator: TA1538, Metabolic Activation: NONE, Method: STANDARD PLATE) was “inactive; negative” and the mutagenic call (Test System: AMES SALMONELLA TYPHIMURIUM, Strain/Indicator: TA1538, Metabolic Activation: RAT LIVER S-9, AROCLOR 1254, Method: STANDARD PLATE) was “inactive; negative”. For the same compound, the mutagenic call (Test System: AMES SALMONELLA TYPHIMURIUM, Strain/Indicator: TA1538, Metabolic Activation: RAT, LIVER, S-9, AROCLOR 1254, Method: PREINCUBATION) was “inactive; negative”, the mutagenic call (Test System: E. COLI, Strain/Indicator: P3078 POLA, Metabolic Activation: NONE, Method: SPOT TEST) was “inactive; negative” and the mutagenic call (Test System: E. COLI, Strain/Indicator: P3078 POLA, Metabolic Activation: RAT LIVER S-9, AROCLOR 1254, Method: SPOT TEST) was “inactive; negative”. The mutagenic call (Test System: E. COLI, Strain/Indicator: W3110, Metabolic Activation: NONE, Method: SPOT TEST) was “inactive; negative”, the mutagenic call (Test System: E. COLI, Strain/Indicator: W3110, Metabolic Activation: RAT LIVER S-9, AROCLOR 1254, Method: SPOT TEST) was “inactive; negative” and the mutagenic call (Test System: MOUSE LYMPHOMA, Strain/Indicator: L5178Y (TK+/TK-), Metabolic Activation: RAT, LIVER, S-9, AROCLOR 1254, Method: SUSPENSION/PLATE) was “inactive; negative. reevaluation of results: negative”. For the same compound, the mutagenic call (Test System: MOUSE LYMPHOMA, Strain/Indicator: L5178Y (TK+/TK-), Metabolic Activation: RAT, LIVER, S-9, Method: SUSPENSION/PLATE) was “inactive; negative”.
